Results as given in the supplement of paper PMC10307832.

Assays:
Assay in all cases: relative viability (nuclei count vs DMSO), 5 days (fraction); higher = more cells survive
NCI-H1355 = tested on: NCI-H1355
Outline: (§1)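 Five library-drug doses in √10 steps were combined with a fixed anchor-drug dose, or a single drug was given alone, by pin tool to lung cancer cell lines in 1536-well plates the day after seeding. Nuclei were stained and counted after 5 days. Relative viability is the nuclei count in treated wells over that in vehicle wells, taken as the median of duplicate plates.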

RERF-LC-KJ = tested on: RERF-LC-KJ
Outline: as §1

LXF-289 = tested on: LXF-289
Outline: as §1

NCI-H2126 = tested on: NCI-H2126
Outline: as §1

LK-2 = tested on: LK-2
Outline: as §1

NCI-H1993 = tested on: NCI-H1993
Outline: as §1

PC-14 = tested on: PC-14
Outline: as §1

NCI-H1437 = tested on: NCI-H1437
Outline: as §1

HCC-827 = tested on: HCC-827
Outline: as §1

NCI-H1944 = tested on: NCI-H1944
Outline: as §1

Cc1csc(=NC2CCCCC2)n1/N=C/c1ccc(O)c(O)c1O [MIM1] + CS(=O)(=O)CCNCc1ccc(-c2ccc3ncnc(Nc4ccc(OCc5cccc(F)c5)c(Cl)c4)c3c2)o1 [Lapatinib] (partner 2 µM)
relative viability (NCI-H1355; first compound 0.2 µM): 0.988 | relative viability (NCI-H1355; first compound 0.6325 µM): 0.902 | relative viability (NCI-H1355; first compound 2 µM): 0.967 | relative viability (NCI-H1355; first compound 6.325 µM): 0.738 | relative viability (NCI-H1355; first compound 20 µM): 0.483 | relative viability (RERF-LC-KJ; first compound 0.2 µM): 0.769 | relative viability (RERF-LC-KJ; first compound 0.6325 µM): 0.772 | relative viability (RERF-LC-KJ; first compound 2 µM): 0.795 | relative viability (RERF-LC-KJ; first compound 6.325 µM): 0.75 | relative viability (RERF-LC-KJ; first compound 20 µM): 0.3 | relative viability (LXF-289; first compound 0.2 µM): 0.868 | relative viability (LXF-289; first compound 0.6325 µM): 0.802 | relative viability (LXF-289; first compound 2 µM): 0.895 | relative viability (LXF-289; first compound 6.325 µM): 0.664 | relative viability (LXF-289; first compound 20 µM): 0.592 | relative viability (NCI-H2126; first compound 0.2 µM): 0.763 | relative viability (NCI-H2126; first compound 0.6325 µM): 0.72 | relative viability (NCI-H2126; first compound 2 µM): 0.77 | relative viability (NCI-H2126; first compound 6.325 µM): 0.679 | relative viability (NCI-H2126; first compound 20 µM): 0.339 | relative viability (LK-2; first compound 0.2 µM): 0.911 | relative viability (LK-2; first compound 0.6325 µM): 0.881 | relative viability (LK-2; first compound 2 µM): 0.697 | relative viability (LK-2; first compound 6.325 µM): 0.835 | relative viability (LK-2; first compound 20 µM): 0.268 | relative viability (NCI-H1993; first compound 0.2 µM): 0.875 | relative viability (NCI-H1993; first compound 0.6325 µM): 0.871 | relative viability (NCI-H1993; first compound 2 µM): 0.735 | relative viability (NCI-H1993; first compound 6.325 µM): 0.87 | relative viability (NCI-H1993; first compound 20 µM): 0.541 | relative viability (PC-14; first compound 0.2 µM): 0.305 | relative viability (PC-14; first compound 0.6325 µM): 0.332 | relative viability (PC-14; first compound 2 µM): 0.363 | relative viability (PC-14; first compound 6.325 µM): 0.349 | relative viability (PC-14; first compound 20 µM): 0.479 | relative viability (NCI-H1437; first compound 0.2 µM): 0.761 | relative viability (NCI-H1437; first compound 0.6325 µM): 0.672 | relative viability (NCI-H1437; first compound 2 µM): 0.91 | relative viability (NCI-H1437; first compound 6.325 µM): 0.456 | relative viability (NCI-H1437; first compound 20 µM): 0.148 | relative viability (HCC-827; first compound 0.2 µM): 0.21 | relative viability (HCC-827; first compound 0.6325 µM): 0.181 | relative viability (HCC-827; first compound 2 µM): 0.198 | relative viability (HCC-827; first compound 6.325 µM): 0.179 | relative viability (HCC-827; first compound 20 µM): 0.248 | relative viability (NCI-H1944; first compound 0.2 µM): 0.889 | relative viability (NCI-H1944; first compound 0.6325 µM): 0.805 | relative viability (NCI-H1944; first compound 2 µM): 0.491 | relative viability (NCI-H1944; first compound 6.325 µM): 0.535 | relative viability (NCI-H1944; first compound 20 µM): 0.445
